From patent US20230146675A1, “PYRIMIDO[5,4-d]PYRIMIDINE DERIVATIVES AS ENT INHIBITORS FOR THE TREATMENT OF CANCERS, AND COMBINATION THEREOF WITH ADENOSINE RECEPTOR ANTAGONISTS” (ITEOS BELGIUM SA, priority 2020, published 2023)

How the values were obtained:
Format in all cases: biochemical
[1] = target: T1, Human phosphodiesterase-4B1 (Homo sapiens, UniProt Q07343); experiment: PDE4B1 (h) assay
T1 construct: host or cells: Sf9 cells
Method: (§1) The test compound (compound 72), reference compound or water (control) were added to a buffer containing 40 mM Tris/HCl (pH 7.4) and 8 mM MgCl2, 450 nM cAMP and 0.25 μCi [3H]cAMP. Thereafter, the reaction was initiated by addition of the enzyme (about 10 U) and the mixture was incubated for 20 min at 22° C. For basal control measurements, the enzyme was omitted from the reaction mixture. Following incubation SPA beads were added. After 30 min at 22° C. under shaking, the amount of [3H]5′AMP was quantified with a scintillation counter (MicroBeta, Perkin Elmer). The results were expressed as a percent inhibition of the control enzyme activity. The standard inhibitory reference compound was Ro 20-1724, which was tested in each experiment at several concentrations to obtain an inhibition curve from which its IC50 value was calculated. • Human phosphodiesterase-4B1 quantified by measuring the formation of 5′AMP from cAMP using a human recombinant enzyme expressed in Sf9 cells.
(§2) The test compound (compound 72), reference compound or water (control) were added to a buffer containing 40 mM Tris/HCl (pH 7.4), 8 mM MgCl2 and 1.7 mM EGTA/NaOH, 450 nM cAMP and 0.25 μCi [3H]cAMP. […] After 30 min at 22° C. under shaking, the amount of [3H]5′AMP was quantified with a scintillation counter (MicroBeta, Perkin Elmer). The results were expressed as a percent inhibition of the control enzyme activity. […]

[2] = target: T2, Human phosphodiesterase-3A (Homo sapiens, UniProt Q14432); experiment: PDE3A (h) assay
T2 construct: host or cells: Sf9 cells
Method: as §1, with “180” for “450”, “0.1” for “0.25”, “0.8” for “10”, “papaverine,” for “Ro 20-1724,”, “phosphodiesterase-3A” for “phosphodiesterase-4B1”, “cells” for “cells.”
as §2, with “7.4) and” for “7.4),”, “MgCl2,” for “MgCl2 and 1.7 mM EGTA/NaOH,”, “(Topcount, Packard).” for “(MicroBeta, Perkin Elmer).”

[3] = target: T3, Human phosphodiesterase-3B (Homo sapiens, UniProt Q13370); experiment: PDE3B (h) assay
T3 construct: host or cells: Sf9 cells
Method: The test compound (compound 72), reference compound or water (control) were added to a buffer containing 40 mM Tris/HCl (pH 7.8), 3 mM MgCl2, 1.4 mM DTT, 0.21% BSA, 200 mM NH4Cl, 2 μM cGMP and 0.05 μCi [3H]cGMP. Thereafter, the reaction was initiated by addition of the enzyme (final amount depending on the efficiency of the isolation) and the mixture was incubated for 60 min at 22° C. For basal control measurements, the enzyme was omitted from the reaction mixture. Following incubation SPA beads were added. After 20 min at 22° C. under shaking, the amount of [3H]5′GMP was quantified with a scintillation counter (Topcount, Packard). The results were expressed as a percent inhibition of the control enzyme activity. The standard inhibitory reference compound was zaprinast, which was tested in each experiment at several concentrations to obtain an inhibition curve from which its IC50 value was calculated. • Human phosphodiesterase-3B quantified by measuring the formation of 5′AMP from cAMP using a human recombinant enzyme expressed in Sf9 cells
The test compound (compound 72), reference compound or water (control) were added to a buffer containing 40 mM Tris/HCl (pH 7.4) and 8 mM MgCl2, 450 nM cAMP and 0.25 μCi [3H]cAMP. […] After 30 min at 22° C. under shaking, the amount of [3H]5′AMP was quantified with a scintillation counter (MicroBeta, Perkin Elmer). […]

T2 sequence (Q14432 whole entry): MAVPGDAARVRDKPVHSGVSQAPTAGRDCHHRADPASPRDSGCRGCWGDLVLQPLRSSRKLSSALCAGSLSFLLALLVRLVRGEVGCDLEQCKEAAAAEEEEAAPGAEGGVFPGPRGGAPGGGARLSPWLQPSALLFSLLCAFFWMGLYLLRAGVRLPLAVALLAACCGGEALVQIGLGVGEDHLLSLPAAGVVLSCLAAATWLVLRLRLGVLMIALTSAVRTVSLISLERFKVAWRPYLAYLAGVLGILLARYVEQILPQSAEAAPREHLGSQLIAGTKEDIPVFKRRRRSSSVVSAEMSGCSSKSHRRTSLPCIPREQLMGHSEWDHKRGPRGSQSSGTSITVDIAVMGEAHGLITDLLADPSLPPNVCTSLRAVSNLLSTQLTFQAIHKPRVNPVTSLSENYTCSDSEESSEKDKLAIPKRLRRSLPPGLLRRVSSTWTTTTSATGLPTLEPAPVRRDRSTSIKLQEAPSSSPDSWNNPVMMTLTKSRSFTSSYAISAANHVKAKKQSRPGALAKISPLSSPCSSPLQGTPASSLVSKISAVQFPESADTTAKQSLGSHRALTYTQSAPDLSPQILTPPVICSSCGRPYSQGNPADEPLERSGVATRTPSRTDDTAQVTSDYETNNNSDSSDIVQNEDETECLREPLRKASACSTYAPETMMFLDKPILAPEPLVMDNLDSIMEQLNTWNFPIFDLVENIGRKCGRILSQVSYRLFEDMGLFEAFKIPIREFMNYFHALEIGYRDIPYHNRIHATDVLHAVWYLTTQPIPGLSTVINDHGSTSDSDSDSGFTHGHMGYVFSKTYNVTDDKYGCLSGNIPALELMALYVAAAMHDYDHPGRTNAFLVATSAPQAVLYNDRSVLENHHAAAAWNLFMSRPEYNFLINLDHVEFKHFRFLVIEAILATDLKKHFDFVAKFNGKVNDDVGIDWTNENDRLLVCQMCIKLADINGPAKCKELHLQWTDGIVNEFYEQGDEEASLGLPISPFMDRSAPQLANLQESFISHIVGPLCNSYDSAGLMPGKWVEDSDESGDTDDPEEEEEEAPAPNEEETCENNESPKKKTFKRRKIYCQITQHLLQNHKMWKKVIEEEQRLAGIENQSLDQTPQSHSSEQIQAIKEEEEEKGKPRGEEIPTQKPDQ
T1 sequence (Q07343 whole entry): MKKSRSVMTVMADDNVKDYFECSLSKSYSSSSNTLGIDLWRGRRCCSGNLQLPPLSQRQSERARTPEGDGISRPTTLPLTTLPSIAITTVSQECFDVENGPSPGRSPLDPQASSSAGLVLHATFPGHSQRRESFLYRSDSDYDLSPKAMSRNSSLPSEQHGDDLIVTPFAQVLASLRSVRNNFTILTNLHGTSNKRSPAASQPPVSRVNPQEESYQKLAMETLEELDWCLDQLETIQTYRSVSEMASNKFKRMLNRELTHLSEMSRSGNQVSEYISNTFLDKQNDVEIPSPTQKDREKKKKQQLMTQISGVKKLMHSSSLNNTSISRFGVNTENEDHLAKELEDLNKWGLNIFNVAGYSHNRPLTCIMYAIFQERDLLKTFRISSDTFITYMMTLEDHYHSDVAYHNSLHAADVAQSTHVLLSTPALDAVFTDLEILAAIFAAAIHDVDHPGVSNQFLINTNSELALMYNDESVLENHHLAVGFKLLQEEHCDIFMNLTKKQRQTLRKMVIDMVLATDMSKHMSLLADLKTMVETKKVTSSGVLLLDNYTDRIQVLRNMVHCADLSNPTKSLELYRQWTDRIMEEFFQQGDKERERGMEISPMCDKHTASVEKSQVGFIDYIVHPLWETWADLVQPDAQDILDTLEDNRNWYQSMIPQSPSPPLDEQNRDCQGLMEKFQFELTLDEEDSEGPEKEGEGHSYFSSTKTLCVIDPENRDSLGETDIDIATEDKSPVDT
T3 sequence (Q13370 whole entry): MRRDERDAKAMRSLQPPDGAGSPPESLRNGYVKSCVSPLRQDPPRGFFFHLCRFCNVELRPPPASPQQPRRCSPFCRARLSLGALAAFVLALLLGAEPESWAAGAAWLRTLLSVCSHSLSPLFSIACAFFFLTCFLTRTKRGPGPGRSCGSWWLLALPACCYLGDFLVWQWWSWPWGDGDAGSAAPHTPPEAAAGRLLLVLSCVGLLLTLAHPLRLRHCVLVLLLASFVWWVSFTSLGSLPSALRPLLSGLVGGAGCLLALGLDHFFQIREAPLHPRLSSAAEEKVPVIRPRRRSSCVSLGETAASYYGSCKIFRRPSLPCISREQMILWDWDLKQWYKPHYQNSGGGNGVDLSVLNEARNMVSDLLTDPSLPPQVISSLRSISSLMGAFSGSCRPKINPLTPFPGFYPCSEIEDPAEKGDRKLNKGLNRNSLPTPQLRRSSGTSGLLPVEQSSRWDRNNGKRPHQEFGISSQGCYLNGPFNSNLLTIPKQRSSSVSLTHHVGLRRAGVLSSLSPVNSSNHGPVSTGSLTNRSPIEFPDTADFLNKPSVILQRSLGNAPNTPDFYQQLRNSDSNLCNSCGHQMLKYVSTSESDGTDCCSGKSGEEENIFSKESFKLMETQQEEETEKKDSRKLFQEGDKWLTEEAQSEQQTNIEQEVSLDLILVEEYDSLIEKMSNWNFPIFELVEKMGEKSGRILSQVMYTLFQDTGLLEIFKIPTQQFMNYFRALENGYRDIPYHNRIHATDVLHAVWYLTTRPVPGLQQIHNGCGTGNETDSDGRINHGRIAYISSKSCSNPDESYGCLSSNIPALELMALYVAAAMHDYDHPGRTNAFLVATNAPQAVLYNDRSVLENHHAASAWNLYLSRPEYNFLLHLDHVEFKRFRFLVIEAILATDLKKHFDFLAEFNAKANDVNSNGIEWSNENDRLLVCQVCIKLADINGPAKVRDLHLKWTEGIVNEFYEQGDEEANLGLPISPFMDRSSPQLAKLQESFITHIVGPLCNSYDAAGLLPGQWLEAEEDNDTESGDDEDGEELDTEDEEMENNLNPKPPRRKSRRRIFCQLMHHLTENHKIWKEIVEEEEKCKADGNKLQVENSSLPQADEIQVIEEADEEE

IC50 [1]: 1 to 10 µM
IC50 [2]: > 10 µM
IC50 [3]: > 10 µM
Compound: COCCN(CCOC)c1nc(N2CCN(C)C(=O)C2)c2nc(N(CCOC)CCOC)nc(N3CCC(OC)CC3)c2n1 [Compound 72, 4-(2,6-bis(bis(2-methoxyethyl)amino)-8-(4-methoxypiperidin-1-yl)pyrimido[5,4-d]pyrimidin-4-yl)-1-methylpiperazin-2-one]
